Test results published in patent US5591741A, “Fungicidal spiroheterocyclic derivatives” (American Cyanamid Company, priority 1993, dated 1997).

How the values were obtained:
Venturia inaequalis = assay: Activity against apple scab in-vitro (VII); format: cell-based; settings: 10 ppm, 10 days, 20° C., mycelial growth
Method in brief: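 V. inaequalis propagules (5×10^4/ml, malt agar-grown) were exposed in half-strength PDB to 10 ppm final test compound delivered in acetone. Growth was scored after incubation for 10 days at 20° C, as a rating relative to untreated or diluent-sprayed controls.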

Leptosphaeria nodorum = assay: Activity against wheat leafspot (LN); format: in vivo; settings: direct therapeutic foliar spray, 600 ppm, 6-8 days
Method in brief: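 Therapeutic foliar spray: compound at 600 ppm applied to single-leaf wheat (cv Norman) 24 h after inoculation with 1.5×10^6 conidia/ml. Disease control scored after 6-8 days at 22° C and 70% humidity as lesions per leaf versus untreated or diluent-sprayed controls.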

Alternaria solani = assay: Activity against tomato early blight (AS); format: in vivo; settings: Table VI; tomato seedlings, contact prophylactic foliar spray, 4 days
Method in brief: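 Plants were challenged with A. solani conidia (10^4 spores/ml) 24 h after a protective foliar spray of compound in 50:50 acetone/water plus 0.04% Tween 20. Held humid at 21° C for 4 days, then percent leaf area with lesions was scored as a rating relative to controls.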

Phytophthora infestans = format: in vivo; settings: tomato, direct protectant foliar spray
[1] = test system: Erysiphe graminis f.sp. hordei; assay: Direct protectant activity against barley powdery mildew (EGP); format: in vivo; settings: direct protectant foliar spray, 8 days
Method in brief: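 Rating reflects percentage of leaf area with sporulation compared with untreated or diluent-sprayed controls. Protectant spray was applied to single-leaf barley (cv Golden Promise) 24 h before conidia inoculation. Plants were kept at 18 °C and 40% RH throughout, with 8 days of disease development.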

[2] = test system: Erysiphe graminis f.sp. hordei; assay: Activity against barley powdery mildew, direct therapeutic (EGT); format: in vivo; settings: direct therapeutic foliar spray, 600 ppm, up to 7 days
Method in brief: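 A curative spray at 600 ppm was applied to single-leaf Golden Promise barley inoculated with powdery mildew conidia the previous day. After up to 7 days at 18 °C and 40% humidity, disease control was rated from percent leaf area sporulating relative to untreated or diluent-sprayed controls.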

[3] = test system: Pseudocercosporella herpotrichoides; assay: Activity against wheat eyespot in-vitro (PHI); format: cell-based; settings: 10 ppm, 10 days, 20° C., mycelial growth
Method in brief: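 Mycelial growth was scored after 10 days at 20 °C against untreated or diluent controls. The broth was half-strength potato dextrose, holding 10 ppm test compound (from acetone) and 5×10^4 fragments/ml of the eyespot fungus.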

Botrytis cinerea = assay: Direct protectant activity against broad bean grey mould (BCB); format: in vivo; settings: direct protectant foliar spray, 600 ppm, 4 days
Method in brief: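 Protectant foliar test: lesion coverage assessed 4 days after inoculation and rated relative to untreated or diluent-sprayed plants. Compound applied at 600 ppm to cv The Sutton leaves 24 h before 10^6 conidia/ml suspension; incubation at 22 °C in high humidity.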

Plasmopara viticola = assay: Antisporulant activity against vine downy mildew (PVA); format: in vivo; settings: vine leaves, antisporulant foliar spray, 600 ppm, 750 l/ha
Method in brief: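 Cabernet Sauvignon vines (~8 cm) inoculated on lower leaf surfaces with 5×10^4 zoosporangia/ml, held 24 h at 21° C high humidity then 24 h glasshouse. Infected leaves sprayed underside with 600 ppm compound in 1:1 water/acetone, 0.04% Tween 20, 750 l/ha; 96 h glasshouse, 24 h humidity. Sporulating leaf area rated versus control.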

Rhizoctonia solani = assay: Activity against Rhizoctonia in-vitro (RSI); format: cell-based; settings: 10 ppm, 10 days, 20° C., mycelial growth
Method in brief: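 Compound at a final 10 ppm (acetone vehicle) in half-strength PDB, inoculated with 5×10^4 fragments/ml of shaken-culture R. solani mycelium. After incubation at 20° C for 10 days, growth scored as a rating versus untreated or diluent-treated controls.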

Pyricularia oryzae = format: in vivo; settings: rice seedlings, direct therapeutic foliar spray, 600 ppm, 4-5 days

CC(C)(C)C1CCC2(CC1)CC(CN)CO2 (centres unmarked) [Compound 181, 8-t-Butyl-3-aminomethyl-1-oxaspiro(4,5)decane]
2 (greater than 80% disease control): disease control rating PIP (Phytophthora infestans) | disease control rating EGP [1] | disease control rating EGT [2]
0 (less than 50% disease control): disease control rating VII (Venturia inaequalis) | disease control rating LN (Leptosphaeria nodorum) | disease control rating AS (Alternaria solani) | disease control rating PHI [3] | disease control rating BCB (Botrytis cinerea) | disease control rating PVA (Plasmopara viticola) | disease control rating RSI (Rhizoctonia solani) | disease control rating PO (Pyricularia oryzae)

CC(C)(C)C1CCC2(CC1)CC(O)(CNC1CCCCC1)CO2 (single isomer, unassigned) [Compound 213, 8-t-Butyl-3-cyclohexylaminomethyl-3-hydroxy-1-oxaspiro-(4,5)decane]
1 (about 50-80% disease control): disease control rating PO (Pyricularia oryzae)
0 (less than 50% disease control): disease control rating VII (Venturia inaequalis) | disease control rating LN (Leptosphaeria nodorum) | disease control rating PHI [3] | disease control rating PVA (Plasmopara viticola) | disease control rating RSI (Rhizoctonia solani)
2 (greater than 80% disease control): disease control rating AS (Alternaria solani) | disease control rating PIP (Phytophthora infestans) | disease control rating EGP [1] | disease control rating EGT [2] | disease control rating BCB (Botrytis cinerea)

CCCN(CC1(C)CCCCC1)C1COC2(CCC(C(C)(C)C)CC2)C1 (centres unmarked) [Compound 127]
0 (less than 50% disease control): disease control rating LN (Leptosphaeria nodorum) | disease control rating AS (Alternaria solani) | disease control rating PIP (Phytophthora infestans) | disease control rating PHI [3] | disease control rating BCB (Botrytis cinerea) | disease control rating PVA (Plasmopara viticola) | disease control rating RSI (Rhizoctonia solani) | disease control rating PO (Pyricularia oryzae)
2 (greater than 80% disease control): disease control rating EGP [1] | disease control rating EGT [2]
1 (about 50-80% disease control): disease control rating VII (Venturia inaequalis)

CC(C)(C)C1CCC2(CC1)CC(N1CCCCC1)CO2 (centres unmarked) [Compound 10]
1 (about 50-80% disease control): disease control rating VII (Venturia inaequalis) | disease control rating LN (Leptosphaeria nodorum) | disease control rating PHI [3]
2 (greater than 80% disease control): disease control rating EGP [1] | disease control rating EGT [2] | disease control rating BCB (Botrytis cinerea)
0 (less than 50% disease control): disease control rating AS (Alternaria solani) | disease control rating PIP (Phytophthora infestans) | disease control rating PVA (Plasmopara viticola) | disease control rating RSI (Rhizoctonia solani) | disease control rating PO (Pyricularia oryzae)

CC(C)CN(CC(C)C)C1COC2(CCC(C(C)(C)C)CC2)C1 (centres unmarked) [Compound 143]
2 (greater than 80% disease control): disease control rating EGP [1] | disease control rating EGT [2]
0 (less than 50% disease control): disease control rating VII (Venturia inaequalis) | disease control rating LN (Leptosphaeria nodorum) | disease control rating AS (Alternaria solani) | disease control rating PIP (Phytophthora infestans) | disease control rating PHI [3] | disease control rating BCB (Botrytis cinerea) | disease control rating PVA (Plasmopara viticola) | disease control rating RSI (Rhizoctonia solani) | disease control rating PO (Pyricularia oryzae)

CC(C)(C)CNC1COC2(CCC(C(C)(C)C)CC2)C1 (centres unmarked) [Compound 134]
2 (greater than 80% disease control): disease control rating EGP [1] | disease control rating EGT [2]
0 (less than 50% disease control): disease control rating VII (Venturia inaequalis) | disease control rating LN (Leptosphaeria nodorum) | disease control rating AS (Alternaria solani) | disease control rating PIP (Phytophthora infestans) | disease control rating PHI [3] | disease control rating BCB (Botrytis cinerea) | disease control rating PVA (Plasmopara viticola) | disease control rating RSI (Rhizoctonia solani) | disease control rating PO (Pyricularia oryzae)

CN(C1COC2(CCC(C(C)(C)C)CC2)C1)C1CC2CCC1C2 (centres unmarked) [Compound 128]
2 (greater than 80% disease control): disease control rating AS (Alternaria solani) | disease control rating EGP [1] | disease control rating EGT [2]
1 (about 50-80% disease control): disease control rating VII (Venturia inaequalis)
0 (less than 50% disease control): disease control rating LN (Leptosphaeria nodorum) | disease control rating PIP (Phytophthora infestans) | disease control rating PHI [3] | disease control rating BCB (Botrytis cinerea) | disease control rating PVA (Plasmopara viticola) | disease control rating RSI (Rhizoctonia solani) | disease control rating PO (Pyricularia oryzae)

CCN(CC)C1COC2(CCC(C(C)(C)C)CC2)C1 (centres unmarked) [Compound 68]
1 (about 50-80% disease control): disease control rating VII (Venturia inaequalis) | disease control rating PO (Pyricularia oryzae)
2 (greater than 80% disease control): disease control rating EGP [1] | disease control rating EGT [2]
0 (less than 50% disease control): disease control rating LN (Leptosphaeria nodorum) | disease control rating AS (Alternaria solani) | disease control rating PIP (Phytophthora infestans) | disease control rating PHI [3] | disease control rating BCB (Botrytis cinerea) | disease control rating PVA (Plasmopara viticola) | disease control rating RSI (Rhizoctonia solani)

CCCCCNC1COC2(CCC(C(C)(C)C)CC2)C1 (centres unmarked) [Compound 8]
0 (less than 50% disease control): disease control rating LN (Leptosphaeria nodorum) | disease control rating AS (Alternaria solani) | disease control rating PIP (Phytophthora infestans) | disease control rating PVA (Plasmopara viticola) | disease control rating RSI (Rhizoctonia solani) | disease control rating PO (Pyricularia oryzae)
2 (greater than 80% disease control): disease control rating EGP [1] | disease control rating EGT [2]
1 (about 50-80% disease control): disease control rating VII (Venturia inaequalis) | disease control rating PHI [3] | disease control rating BCB (Botrytis cinerea)

CN(C)C1COC2(CCC(C(C)(C)C)CC2)C1 (centres unmarked) [Compound 67]
1 (about 50-80% disease control): disease control rating LN (Leptosphaeria nodorum) | disease control rating PO (Pyricularia oryzae)
0 (less than 50% disease control): disease control rating VII (Venturia inaequalis) | disease control rating AS (Alternaria solani) | disease control rating PHI [3] | disease control rating BCB (Botrytis cinerea) | disease control rating PVA (Plasmopara viticola) | disease control rating RSI (Rhizoctonia solani)
2 (greater than 80% disease control): disease control rating PIP (Phytophthora infestans) | disease control rating EGP [1] | disease control rating EGT [2]
